Assay results: ChEMBL document CHEMBL3885861, “Open TG-GATES”

Species: Rattus norvegicus
Experiment: Open TG-GATES - Regimen: Daily Repeat
Type: toxicity, organism-based, Sprague-Dawley
Design: regimen Daily Repeat, gender Male, age 6 weeks
Settings: in vivo, po, route gavage; for gamma-GTP / ALP / ALT / AST / BUN / CRE / Ca / Cl / DBIL / GLC / IP / K / LDH / Na / PL / RALB / TBIL / TC / TG / TP: tissue Plasma; for APTT / Bas / Eos / Fbg / Ht / Lym / MCH / MCHC / MCV / Mono / Neu / PT / Plat / RBC / Ret / WBC: tissue Blood; for KIDNEY_L / KIDNEY_R / KIDNEY_TOTAL: tissue Kidney; for LIVER: tissue Liver
[1] = 10 mg/kg, 72 h, dose level Low, time 3 day
[2] = 10 mg/kg, […], dose level Low, time 7 day
[3] = 10 mg/kg, […], dose level Low, time 14 day
[4] = 10 mg/kg, […], dose level Low, time 28 day

## Cc1cccc(Nc2cc(Cl)nc(SCC(=O)O)n2)c1C [PIRINIXIC ACID]
0 mg/kg, […], dose level Control, time 28 day
  gamma-GTP: 1 IU/L
[1]
  TERMINAL_BW: 232.6 g
  APTT: 15.8 s
  Bas: 0%
  Eos: 1%
  Fbg: 215.2 mg/dL
  Ht: 39%
  Lym: 76.6%
  MCH: 21.6 pg
  MCHC: 34%
  MCV: 63.6 fL
  Mono: 2.6%
  Neu: 19.2%
  PT: 12.5 s
  Plat: 111.3 x10_4/uL
  RBC: 612.8 x10_4/ul
  Ret: 6.1%
  WBC: 76.7 x10_2/uL
  KIDNEY_L: 1 g
  KIDNEY_R: 1 g
  KIDNEY_TOTAL: 1.9 g
  LIVER: 14.4 g
  ALP: 2039.8 IU/L
  ALT: 60.6 IU/L
  AST: 81.6 IU/L
  BUN: 14.6 mg/dL
  CRE: 0.2 mg/dL
  Ca: 10.8 mg/dL
  Cl: 106 meq/L
  DBIL: 0.02 mg/dL
  GLC: 210 mg/dL
  IP: 7.5 mg/dL
  K: 4.1 meq/L
  LDH: 90 IU/L
  Na: 143.8 meq/L
  PL: 111.8 mg/dL
  RALB: 2.7 g/dL
  TBIL: 0.03 mg/dL
  TC: 55 mg/dL
  TG: 31.2 mg/dL
  TP: 5.4 g/dL
  gamma-GTP: 1.2 IU/L
[2]
  TERMINAL_BW: 276.5 g
  APTT: 17.8 s
  Bas: 0%
  Eos: 1%
  Fbg: 262.8 mg/dL
  Ht: 38.4%
  Lym: 76.4%
  MCH: 21.6 pg
  MCHC: 34.9%
  MCV: 61.8 fL
  Mono: 3.2%
  Neu: 19.2%
  PT: 12.6 s
  Plat: 130.2 x10_4/uL
  RBC: 621.6 x10_4/ul
  Ret: 5.9%
  WBC: 93.9 x10_2/uL
  KIDNEY_L: 1.2 g
  KIDNEY_R: 1.1 g
  KIDNEY_TOTAL: 2.3 g
  LIVER: 20.3 g
  ALP: 1837.8 IU/L
  ALT: 49.2 IU/L
  AST: 65.4 IU/L
  BUN: 18.4 mg/dL
  CRE: 0.2 mg/dL
  Ca: 11.2 mg/dL
  Cl: 102.4 meq/L
  DBIL: 0.014 mg/dL
  GLC: 202.6 mg/dL
  IP: 7.2 mg/dL
  K: 4.2 meq/L
  LDH: 98.8 IU/L
  Na: 142.2 meq/L
  PL: 148.6 mg/dL
  RALB: 3 g/dL
  TBIL: 0.026 mg/dL
  TC: 77.6 mg/dL
  TG: 60.4 mg/dL
  TP: 6.2 g/dL
  gamma-GTP: 1 IU/L
[3]
  TERMINAL_BW: 313.7 g
  APTT: 17.3 s
  Bas: 0.2%
  Eos: 1%
  Fbg: 262.8 mg/dL
  Ht: 38.9%
  Lym: 78.8%
  MCH: 20.7 pg
  MCHC: 35.3%
  MCV: 58.6 fL
  Mono: 2.8%
  Neu: 16%
  PT: 12.5 s
  Plat: 132.4 x10_4/uL
  RBC: 664.6 x10_4/ul
  Ret: 4.7%
  WBC: 110.5 x10_2/uL
  KIDNEY_L: 1.3 g
  KIDNEY_R: 1.3 g
  KIDNEY_TOTAL: 2.6 g
  LIVER: 22.8 g
  ALP: 1550.8 IU/L
  ALT: 45 IU/L
  AST: 64 IU/L
  BUN: 17.4 mg/dL
  CRE: 0.2 mg/dL
  Ca: 10.5 mg/dL
  Cl: 103.2 meq/L
  DBIL: 0.016 mg/dL
  GLC: 206.8 mg/dL
  IP: 7.4 mg/dL
  K: 3.8 meq/L
  LDH: 97.2 IU/L
  Na: 142.2 meq/L
  PL: 144.2 mg/dL
  RALB: 2.9 g/dL
  TBIL: 0.032 mg/dL
  TC: 67.2 mg/dL
  TG: 53.6 mg/dL
  TP: 6.2 g/dL
  gamma-GTP: 1.2 IU/L
[4]
  TERMINAL_BW: 373.2 g
  APTT: 16.3 s
  Bas: 0%
  Eos: 1%
  Fbg: 251.2 mg/dL
  Ht: 39.5%
  Lym: 76.8%
  MCH: 19.7 pg
  MCHC: 35.9%
  MCV: 54.9 fL
  Mono: 3.6%
  Neu: 18%
  PT: 12.2 s
  Plat: 118 x10_4/uL
  RBC: 720.4 x10_4/ul
  Ret: 2.7%
  WBC: 97.4 x10_2/uL
  KIDNEY_L: 1.4 g
  KIDNEY_R: 1.4 g
  KIDNEY_TOTAL: 2.9 g
  LIVER: 26.4 g
  ALP: 1413.8 IU/L
  ALT: 50.4 IU/L
  AST: 63.6 IU/L
  BUN: 17.6 mg/dL
  CRE: 0.2 mg/dL
  Ca: 11 mg/dL
  Cl: 103.8 meq/L
  DBIL: 0.014 mg/dL
  GLC: 188.6 mg/dL
  IP: 7.4 mg/dL
  K: 3.7 meq/L
  LDH: 115 IU/L
  Na: 143 meq/L
  PL: 155.2 mg/dL
  RALB: 3.1 g/dL
  TBIL: 0.048 mg/dL
  TC: 79.4 mg/dL
  TG: 63.4 mg/dL
  TP: 6.8 g/dL
